Calls of active or inactive are those of the source. No rule for the calls is given here.

The series has as its system CCRIS mutagenicity, Ames/micronucleus/aberration tests. In words: CCRIS mutagenicity studies.
[1] abbreviates: Test System: AMES SALMONELLA TYPHIMURIUM, Strain/Indicator: TA98, Metabolic Activation: NONE, Method: STANDARD PLATE.
Where [2] appears, read: Test System: AMES SALMONELLA TYPHIMURIUM, Strain/Indicator: TA98, Metabolic Activation: RAT, LIVER, S-9, AROCLOR 1254, Method: STANDARD PLATE.
The mark [3] stands for this setting: Test System: AMES SALMONELLA TYPHIMURIUM, Strain/Indicator: TA100, Metabolic Activation: NONE, Method: STANDARD PLATE.
[4] abbreviates: Test System: AMES SALMONELLA TYPHIMURIUM, Strain/Indicator: TA100, Metabolic Activation: RAT, LIVER, S-9, AROCLOR 1254, Method: STANDARD PLATE.
[5] abbreviates: Test System: AMES SALMONELLA TYPHIMURIUM, Strain/Indicator: TA98, Metabolic Activation: NONE, Method: PREINCUBATION
[6] abbreviates: Test System: AMES SALMONELLA TYPHIMURIUM, Strain/Indicator: TA100, Metabolic Activation: NONE, Method: PREINCUBATION
The mark [7] stands for this setting: Test System: AMES SALMONELLA TYPHIMURIUM, Strain/Indicator: TA1535, Metabolic Activation: NONE, Method: PREINCUBATION
[8] abbreviates: Test System: AMES SALMONELLA TYPHIMURIUM, Strain/Indicator: TA1537, Metabolic Activation: NONE, Method: PREINCUBATION

`O=C(/C=C/c1ccccc1)c1ccc(-c2ccccc2)cc1`: the mutagenic call under setting [1] was “inactive; negative”, the mutagenic call under setting [2] is “inactive; negative”, the mutagenic call under setting [3] is “inactive; negative” and the mutagenic call under setting [4] is “inactive; negative”.
Take `Cc1ccc(C)c2c1ccc1ccccc12`: the mutagenic call is, setting by setting: under setting [1], “inactive; negative”; under setting [2], “active; positive”; under setting [3], “inactive; negative”; under setting [4], “active; positive”.
Consider `COc1cc(O)c2c(c1)Cc1cc(C)cc(O)c1C2=O`, for which the mutagenic call is, setting by setting: (Test System: AMES SALMONELLA TYPHIMURIUM, Strain/Indicator: TA1537, Metabolic Activation: NONE, Method: STANDARD PLATE) “inactive; negative”; (Test System: AMES SALMONELLA TYPHIMURIUM, Strain/Indicator: TA1537, Metabolic Activation: S-9, Method: STANDARD PLATE) “active; positive”.
On to `c1ccc2[nH]cnc2c1`, for which the mutagenic call is “inactive; negative” (Test System: AMES SALMONELLA TYPHIMURIUM, Strain/Indicator: TA97, Metabolic Activation: HAMSTER, LIVER, S-9, AROCLOR 1254 (10 OR 30%), Method: PREINCUBATION); “inactive; negative” (Test System: AMES SALMONELLA TYPHIMURIUM, Strain/Indicator: TA97, Metabolic Activation: NONE, Method: PREINCUBATION); “inactive; negative” (Test System: AMES SALMONELLA TYPHIMURIUM, Strain/Indicator: TA97, Metabolic Activation: RAT, LIVER, S-9, AROCLOR 1254 (10 OR 30%), Method: PREINCUBATION); “inactive; negative” (Test System: AMES SALMONELLA TYPHIMURIUM, Strain/Indicator: TA98, Metabolic Activation: HAMSTER, LIVER, S-9, AROCLOR 1254 (10 OR 30%), Method: PREINCUBATION); “inactive; negative” under setting [5]; “inactive; negative” (Test System: AMES SALMONELLA TYPHIMURIUM, Strain/Indicator: TA98, Metabolic Activation: RAT, LIVER, S-9, AROCLOR 1254 (10 OR 30%), Method: PREINCUBATION). Further, the mutagenic call is “inactive; negative” (Test System: AMES SALMONELLA TYPHIMURIUM, Strain/Indicator: TA100, Metabolic Activation: HAMSTER, LIVER, S-9, AROCLOR 1254 (10 OR 30%), Method: PREINCUBATION); “inactive; negative” under setting [6]; “inactive; negative” (Test System: AMES SALMONELLA TYPHIMURIUM, Strain/Indicator: TA100, Metabolic Activation: RAT, LIVER, S-9, AROCLOR 1254 (10 OR 30%), Method: PREINCUBATION); “inactive; negative” (Test System: AMES SALMONELLA TYPHIMURIUM, Strain/Indicator: TA1535, Metabolic Activation: HAMSTER, LIVER, S-9, AROCLOR 1254 (10 OR 30%), Method: PREINCUBATION); “inactive; negative” under setting [7]; “inactive; negative” (Test System: AMES SALMONELLA TYPHIMURIUM, Strain/Indicator: TA1535, Metabolic Activation: RAT, LIVER, S-9, AROCLOR 1254 (10 OR 30%), Method: PREINCUBATION). Further, the mutagenic call (Test System: AMES SALMONELLA TYPHIMURIUM, Strain/Indicator: TA1537, Metabolic Activation: HAMSTER, LIVER, S-9, AROCLOR 1254 (10 OR 30%), Method: PREINCUBATION) is “inactive; negative”; the mutagenic call under setting [8] was “inactive; negative”; the mutagenic call (Test System: AMES SALMONELLA TYPHIMURIUM, Strain/Indicator: TA1537, Metabolic Activation: RAT, LIVER, S-9, AROCLOR 1254 (10 OR 30%), Method: PREINCUBATION) is “inactive; negative”.
In the case of `Oc1ccc(Cl)cc1Cc1ccccc1`, the mutagenic call is, setting by setting: (Test System: AMES SALMONELLA TYPHIMURIUM, Strain/Indicator: TA98, Metabolic Activation: HAMSTER, LIVER, S-9, AROCLOR 1254 (10%), Method: PREINCUBATION) “inactive; negative”; under setting [5], “inactive; negative”; (Test System: AMES SALMONELLA TYPHIMURIUM, Strain/Indicator: TA98, Metabolic Activation: RAT, LIVER, S-9, AROCLOR 1254 (10%), Method: PREINCUBATION) “inactive; negative”; (Test System: AMES SALMONELLA TYPHIMURIUM, Strain/Indicator: TA100, Metabolic Activation: HAMSTER, LIVER, S-9, AROCLOR 1254 (10%), Method: PREINCUBATION) “inactive; negative”; under setting [6], “inactive; negative”; (Test System: AMES SALMONELLA TYPHIMURIUM, Strain/Indicator: TA100, Metabolic Activation: RAT, LIVER, S-9, AROCLOR 1254 (10%), Method: PREINCUBATION) “inactive; negative”. Further, the mutagenic call is, setting by setting: (Test System: AMES SALMONELLA TYPHIMURIUM, Strain/Indicator: TA1535, Metabolic Activation: HAMSTER, LIVER, S-9, AROCLOR 1254 (10%), Method: PREINCUBATION) “inactive; negative”; under setting [7], “inactive; negative”; (Test System: AMES SALMONELLA TYPHIMURIUM, Strain/Indicator: TA1535, Metabolic Activation: RAT, LIVER, S-9, AROCLOR 1254 (10%), Method: PREINCUBATION) “inactive; negative”; (Test System: AMES SALMONELLA TYPHIMURIUM, Strain/Indicator: TA1537, Metabolic Activation: HAMSTER, LIVER, S-9, AROCLOR 1254 (10%), Method: PREINCUBATION) “inactive; negative”; under setting [8], “inactive; negative”; (Test System: AMES SALMONELLA TYPHIMURIUM, Strain/Indicator: TA1537, Metabolic Activation: RAT, LIVER, S-9, AROCLOR 1254 (10%), Method: PREINCUBATION) “inactive; negative”.
Regarding `COc1ccc2nc3cc(Cl)ccc3c(NCCCNCCCl)c2c1`, the mutagenic call is “active; positive” (Test System: AMES SALMONELLA TYPHIMURIUM, Strain/Indicator: TA97A, Metabolic Activation: NONE, Method: STANDARD PLATE); “active; positive” under setting [1]; “active; positive” under setting [3]; “inactive; negative” (Test System: AMES SALMONELLA TYPHIMURIUM, Strain/Indicator: TA1535, Metabolic Activation: NONE, Method: STANDARD PLATE); “active; positive” (Test System: AMES SALMONELLA TYPHIMURIUM, Strain/Indicator: TA1536, Metabolic Activation: NONE, Method: STANDARD PLATE); “active; positive” (Test System: AMES SALMONELLA TYPHIMURIUM, Strain/Indicator: TA1538, Metabolic Activation: NONE, Method: STANDARD PLATE). Besides, the mutagenic call is, setting by setting: (Test System: CHINESE HAMSTER V-79, Strain/Indicator: V-79/6-THIOGUANINE, Metabolic Activation: NONE, Method: FLASK ASSAY) “active; positive”; (Test System: CHO/HGPRT, Strain/Indicator: CHO-K1-BH4, Metabolic Activation: NONE, Method: STANDARD PLATE) “active; positive”; (Test System: UDS RODENT CELLS, Strain/Indicator: THY INCORP (NON-S-PHASE), Metabolic Activation: NONE, Method: LIQUID SCINTILLATION COUNTING) “active; positive”.
For the compound `Cc1ccc([N+](=O)[O-])cc1NO`, the mutagenic call by setting is: (Test System: AMES SALMONELLA TYPHIMURIUM, Strain/Indicator: TA98, Metabolic Activation: NONE, Method: SUSPENSION/PLATE) “inactive; negative”; (Test System: AMES SALMONELLA TYPHIMURIUM, Strain/Indicator: TA98, Metabolic Activation: RAT, LIVER, S-9, PHENOBARBITAL AND 5,6-BENZOFLAVONE, Method: SUSPENSION/PLATE) “inactive; negative”; (Test System: AMES SALMONELLA TYPHIMURIUM, Strain/Indicator: TA100, Metabolic Activation: NONE, Method: SUSPENSION/PLATE) “inactive; negative”; (Test System: AMES SALMONELLA TYPHIMURIUM, Strain/Indicator: TA100, Metabolic Activation: RAT, LIVER, S-9, PHENOBARBITAL AND 5,6-BENZOFLAVONE, Method: SUSPENSION/PLATE) “inactive; negative”.
For the compound `COc1cccc2c1C(=O)c1c(O)c3c(c(O)c1C2=O)C[C@@](O)(C(C)=NNC(=O)c1ccccc1)C[C@@H]3O[C@H]1C[C@H](N)[C@H](O)[C@H](C)O1`, the mutagenic call runs as follows: (Test System: AMES SALMONELLA TYPHIMURIUM, Strain/Indicator: TA97, Metabolic Activation: NONE, Method: STANDARD PLATE) “inactive; negative”; under setting [1], “active; positive”; under setting [3], “inactive; negative”; (Test System: AMES SALMONELLA TYPHIMURIUM, Strain/Indicator: TA104, Metabolic Activation: NONE, Method: STANDARD PLATE) “inactive; negative”; (Test System: AMES SALMONELLA TYPHIMURIUM, Strain/Indicator: TA2637, Metabolic Activation: NONE, Method: STANDARD PLATE) “active; positive”.

Values taken from PubChem BioAssay AID1259407 (Chemical Carcinogenesis Research Information System (CCRIS), 2018).
